The test system of assay [1] is Fmr1 KO mice. In words: Novel object recognition test (learning and memory) in Fmr1 KO mice. The class given is in vivo, mouse. The note with it: Fmr1 KO mice vs vehicle and FVB mice, daily oral treatment from P21, ACT01 25 mg/kg, FIG. 4D. From the text: (§1) The study compared learning and memory behaviors of the different drug treated and untreated (vehicle) Fmr1 KO mice with FVB mice (a background strain of the transgenic Fmr1 KO mice; “FVB” refers to the susceptibility of FVB mice to Friend leukemia virus B). Male mice (FVB.129P2-Pde6b<+> Tyr<c-ch>Fmr1<tm1Cgr>/J (Stock No: 004624 |FMR1 KO)) were used as the FXS/autism model and age-matched male mice (FVB.129P2-Pde6b<+> Tyr<c-ch>/AntJ) were used as the controls (Bernardet, M. and W. E. Crusio, Fmr1 KO mice as a possible model of autistic features. Scientific WorldJournal, 2006. 6: p. 1164-76. Hays, S. A., K. M. Huber, and J. R. Gibson, Altered neocortical rhythmic activity states in Fmr1 KO mice are due to enhanced mGluR5 signaling and involve changes in excitatory circuitry. J Neurosci, 2011. 31(40): p. 14223-34. Willemsen, R. and R. F. Kooy, Mouse models of fragile X-related disorders. Dis Model Mech, 2023. 16(2).).
Unexpected drug-combination effects on rodent learning and memory: Novel object recognition test was used to assess treatment effects of different catecholaminergic mediations (including drug combinations) on cognitive behavior, i.e., learning and memory. […]

The test system of assay [2] is Fmr1 KO mice. In words: Metabolic activities (glucose and lipid) of Fmr1 KO mice. Format: in vivo, mouse. As to conditions: Fmr1 KO mice vs FVB mice; FIG. 4C.
Text: The altered metabolic activities indicated sympathetic dysregulation (i.e., catecholaminergic disequilibrium). Dopaminergic activity modulates sympathetic activation.
as §1
Such alterations indicated an excessive sympathetic activation.

Entries after “also recorded” stand apart in the source; their conditions may differ.

The values below come from patent publication US20260191829A1, “Compositions and Methods of Treating Neurological Conditions” (DRI Biosciences Corporation, priority 2022, published 2026).

For the substance “3-(phenylpropyl)-sydnonimine-N-phenylcarbamoyl [ACT01]”, the “learning and memory ability (NOR index = novel object recognition index)” value in assay [1] is recorded as “significantly (p<0.05) improved; also recorded: positively enhance”. Further, in assay [2], the “glucose and lipid metabolisms (metabolic activities)” value was “normalized the glucose and lipid metabolisms; also recorded: normalized the metabolic activities”.
